Reference: publication PMC8344021, “Discovery of Small Molecule Bak Activator for Lung Cancer Therapy” (Theranostics, 2021)

Molecular target: T1, BH3 deletion human Bak mutant protein (ΔBH3) (Homo sapiens, UniProt Q16611, DEL74-90)
T1 construct: His6; made in house; host or cells: Escherichia coli BL21 DE3
Experiment: Isothermal titration calorimetry (ITC), BH3 deletion mutant
Type: binding
Method: The binding affinity of BKA-073 with Bak protein was examined by isothermal titration calorimetry (ITC) assay as described, [28]. ITC assay was carried out in the auto-iTC200 instrument (MicroCal, GE) at 25 °C. Purified recombinant human or mouse Bak protein was loaded into a 96 Deepwell PP plate. BKA-073 compound was then titrated stepwise into the protein for a total of 16 injections. Reference power and initial delay were set as 5 µCal/sec and 60s, respectively. A string speed of 750 rpm was used for the ITC measurements. The binding constant (Kd) value was determined by fitting the titration curve to a one-site binding mode, using the Origin software provided by the manufacturer.
To confirm the binding of BKA-073 with Bak, we first conducted a competitive fluorescence polarization (FP) assay using purified human Bak protein, fluorescent Bak BH3 domain peptide, and BKA-073 as described, [37]-[40]. […] There are multiple amino acid differences in the BH3 domains between Bak and other Bcl2 family members, which helps to explain why BKA-073 only binds to Bak but not to other Bcl2 family members (i.e. Bax, Bcl2, Bcl-XL, Bcl-w and Mcl-1). In addition to the FP assay, isothermal titration calorimetry (ITC) was also employed to measure Bak/BKA-073 binding. […] In addition to human Bak/BKA-073 binding, we measured mouse Bak/BKA-073 binding using ITC. […]

T1 sequence (Q16611 with tags, fused parts or gaps DEL74-90 limits assumed): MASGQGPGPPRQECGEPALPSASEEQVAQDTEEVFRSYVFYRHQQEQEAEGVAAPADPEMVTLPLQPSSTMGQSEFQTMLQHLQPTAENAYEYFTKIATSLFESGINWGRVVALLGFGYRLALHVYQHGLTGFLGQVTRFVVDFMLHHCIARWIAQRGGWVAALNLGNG

COc1ccc2nc3ccccc3c(NCCNCC(C)O)c2c1 (stereo not shown) [BKA-073]
binding to ΔBH3 Bak mutant: failed to bind
